Experimental findings from patent US20080242649A1, “New Combination 665” (priority 2007, published 2008) are described below.

Each structure is given as a SMILES string. Structures can show the parent of a compound that is named as a salt.

Assay [1] has as its target T1, recombinant human α1D receptor (Homo sapiens, UniProt P25100).
T1 construct: expressed in transfected cells; host or cells: HEK293 cells (membranes)
T1 sequence (P25100 1-572): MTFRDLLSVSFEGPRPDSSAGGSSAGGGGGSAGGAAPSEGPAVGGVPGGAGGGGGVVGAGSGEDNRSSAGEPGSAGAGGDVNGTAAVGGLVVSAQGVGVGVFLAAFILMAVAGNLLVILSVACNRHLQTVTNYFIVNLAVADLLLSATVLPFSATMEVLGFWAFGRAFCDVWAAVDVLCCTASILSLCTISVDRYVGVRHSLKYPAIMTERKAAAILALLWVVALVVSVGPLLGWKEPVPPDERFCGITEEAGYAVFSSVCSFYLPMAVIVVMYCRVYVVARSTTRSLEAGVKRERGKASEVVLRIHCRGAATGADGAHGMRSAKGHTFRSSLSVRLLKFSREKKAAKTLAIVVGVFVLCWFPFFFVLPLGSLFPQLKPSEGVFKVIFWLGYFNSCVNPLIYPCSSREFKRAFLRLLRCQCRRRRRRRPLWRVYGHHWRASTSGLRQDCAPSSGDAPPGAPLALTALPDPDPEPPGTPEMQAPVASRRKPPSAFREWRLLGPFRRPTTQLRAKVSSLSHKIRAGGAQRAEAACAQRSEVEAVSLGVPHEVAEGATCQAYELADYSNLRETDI
As to the kind of experiment: Adrenergic α1D [3H]-prazosin binding, HEK293 membranes. Conditions: inhibition of [3H]-prazosin binding; read-out: α1 bind pIC50 (converted). On the procedure: Membranes were prepared from human embryonic kidney 293 (HEK293) cells expressing recombinant human α1D receptor. These were diluted in Assay Buffer (50 mM HEPES, 1 mM EDTA, 0.1% gelatin, pH 7.4) to provide a final concentration of membranes that gave a clear window between maximum and minimum specific binding.
(§1) Assays were performed in U-bottomed 96-well polypropylene plates. 10 μL [^3H]-prazosin (0.3 nM final concentration) and 10 μL of Compound A (10× final concentration) were added to each test well. For each assay plate 8 replicates were obtained for [^3H]-prazosin binding in the presence of 10 μL vehicle (10% (v/v) DMSO in Assay Buffer; defining maximum binding) or 10 μL BMY7378 (10 μM final concentration; defining non-specific binding (NSB)). Membranes were then added to achieve a final volume of 100 μL. […] Five washes with 250 μL wash buffer (50 mM HEPES, 1 mM EDTA, pH 7.4) were performed at 4° C. to remove unbound radioactivity. […] The plates were sealed (TopSeal A) and filter-bound radioactivity was measured with a scintillation counter (TopCount, Packard BioScience) using a 3-minute counting protocol.
(§2) Total specific binding (B0) was determined by subtracting the mean NSB from the mean maximum binding. […]

In assay [2] the target is T2, recombinant human adrenergic beta 1 receptors (Homo sapiens, UniProt P08588).
T2 construct: purchased Euroscreen
Kind of assay: Adrenergic β1 [125I]-Iodocyanopindolol binding. Conditions: inhibition of [125I]-Iodocyanopindolol binding; read-out: β1 bind pIC50 (converted). The method, then: Membranes containing recombinant human adrenergic beta 1 receptors were obtained from Euroscreen. These were diluted in Assay Buffer (50 mM HEPES, 1 mM EDTA, 120 mM NaCl, 0.1% gelatin, pH 7.4) to provide a final concentration of membranes that gave a clear window between maximum and minimum specific binding.
as §1, with “PL [1251]-Iodocyanopindolol (0.036” for “μL [^3H]-prazosin (0.3”, “[^125]-Iodocyanopindolol” for “[^3H]-prazosin”, “Propranolol” for “BMY7378”, “EDTA, 120 mM NaCl,” for “EDTA,”
as §2

Assay [3] concerns the target T3, recombinant human Dopamine Subtype D2s receptors (Homo sapiens, UniProt P14416).
T3 construct: purchased Perkin Elmer
As to the kind of experiment: Dopamine D2 [3H]-spiperone binding. Conditions: inhibition of [3H]-spiperone binding; read-out: D2 bind pIC50 (converted). On the procedure:
Membranes containing recombinant human Dopamine Subtype D2s receptors were obtained from Perkin Elmer. These were diluted in Assay Buffer (50 mM HEPES, 1 mM EDTA, 120 mM NaCl, 0.1% gelatin, pH 7.4) to provide a final concentration of membranes that gave a clear window between maximum and minimum specific binding.
Assays were performed in U-bottomed 96-well polypropylene plates. 30 PL [^3H]-spiperone (0.16 nM final concentration) and 30 μL of Compound A (10× final concentration) were added to each test well. For each assay plate 8 replicates were obtained for [^3H]-spiperone binding in the presence of 30 PL vehicle (10% (v/v) DMSO in Assay Buffer; defining maximum binding) or 30 μL Haloperidol (10 PM final concentration; defining non-specific binding (NSB)). Membranes were then added to achieve a final volume of 300 μL. […] Five washes with 250 μL wash buffer (50 mM HEPES, 1 mM EDTA, 120 mM NaCl, pH 7.4) were performed at 4° C. to remove unbound radioactivity. […] The plates were sealed (TopSeal A) and filter-bound radioactivity was measured with a scintillation counter (TopCount, Packard BioScience) using a 3-minute counting protocol.
as §2

T3 sequence (P14416 1-414 isoform P14416-2): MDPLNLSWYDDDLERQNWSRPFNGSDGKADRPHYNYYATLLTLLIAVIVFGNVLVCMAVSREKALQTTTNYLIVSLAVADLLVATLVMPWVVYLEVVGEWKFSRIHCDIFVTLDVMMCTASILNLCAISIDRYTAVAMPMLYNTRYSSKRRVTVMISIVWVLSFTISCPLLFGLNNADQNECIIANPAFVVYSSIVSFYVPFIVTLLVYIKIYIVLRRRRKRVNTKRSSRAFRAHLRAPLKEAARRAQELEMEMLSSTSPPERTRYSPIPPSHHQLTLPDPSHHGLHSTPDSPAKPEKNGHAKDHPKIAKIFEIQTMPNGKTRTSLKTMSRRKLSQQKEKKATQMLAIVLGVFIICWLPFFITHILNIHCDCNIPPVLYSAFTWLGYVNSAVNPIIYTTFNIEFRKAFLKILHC
T2 sequence (P08588 whole entry): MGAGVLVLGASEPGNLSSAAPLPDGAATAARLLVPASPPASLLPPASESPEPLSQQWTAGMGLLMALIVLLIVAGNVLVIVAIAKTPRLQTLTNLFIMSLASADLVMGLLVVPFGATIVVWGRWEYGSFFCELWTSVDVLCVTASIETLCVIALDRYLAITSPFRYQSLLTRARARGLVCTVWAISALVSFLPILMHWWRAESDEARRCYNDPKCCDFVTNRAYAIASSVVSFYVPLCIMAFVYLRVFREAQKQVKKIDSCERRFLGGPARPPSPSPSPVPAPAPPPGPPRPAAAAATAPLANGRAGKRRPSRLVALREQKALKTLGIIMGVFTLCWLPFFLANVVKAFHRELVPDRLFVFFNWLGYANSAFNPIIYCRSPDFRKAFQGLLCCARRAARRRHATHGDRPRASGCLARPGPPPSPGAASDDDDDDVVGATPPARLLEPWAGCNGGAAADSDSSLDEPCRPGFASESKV

Consider `CCN(CC)CCN(CCNCCc1ccc(O)c2[nH]c(=O)sc12)C(=O)CCOCCc1cccc2ccccc12` [Compound A, N-[2-(Diethylamino)ethyl]-N-(2-{[2-(4-hydroxy-2-oxo-2,3-dihydro-1,3-benzothiazol-7-yl)ethyl]amino}ethyl)-3-[2-(1-naphthyl)ethoxy]propanamide dihydrobromide], for which the IC50 in assay [1] is 251 nM; in assay [2], above 10000 nM; in assay [3], 794 nM.
